Reference: patent US20250017912A1, “METHODS FOR DOWN-REGULATION AND UP-REGULATION OF PATHWAYS” (MedRegen, LLC, priority 2023, published 2025)
Read-outs that look alike come from different tables or passages of the source.

Tests used:
[1] = clinical; settings: human, in vivo
[2] = test system: cell migration stimulated by CXCL12; settings: cited from earlier work
[3] = test system: CD34+HSCs; settings: cited from earlier work
[4] = in vivo
[5] = Tacrolimus whole blood pharmacokinetics (LC-MS-MS) after SC Composition A; format: in vivo, human; settings: for Tacrolimus blood trough levels: 0.01 ml/kg dose group; for AUC / Cmax / Tmax / half-life: human, whole blood; for AUC: read-out: Tacrolimus AUCtau (GM); for Cmax: read-out: Tacrolimus Cmax (GM)
Description: Tacrolimus. Blood samples were obtained from all subjects in parallel as for plerixafor. Whole blood from each sample was stored in −80° C. condition until shipment. The analysis of K2EDTA whole blood for the quantitation of tacrolimus using a validated method by LC-MS-MS was performed by Worldwide Clinical Trials, Bioanalytical Services (Austin, TX, USA) in compliance with principles of GLP standards as referenced above.
Study data were collected and similar pharmacokinetic parameters as above were calculated using Analyst® (Version 1.4.2 or 1.6.1, Applied Biosystems/MDS Sciex) and evaluated with Watson Laboratory Information Management System™ (LIMS; Version 7.2.0.03, Thermo Fisher Scientific) software.

[6] = sc, 0.005 mL/kg, Composition A 0.005 mL/kg SC QAD, Day 5
[7] = sc, 0.005 mL/kg, Composition A 0.005 mL/kg SC, Day 1
[8] = sc, 0.01 mL/kg, Composition A 0.01 mL/kg SC QAD, Day 5
[9] = sc, 0.01 mL/kg, Composition A 0.01 mL/kg SC, Day 1
[10] = sc, 0.02 mL/kg, Composition A 0.02 mL/kg SC QAD, Day 5
[11] = sc, 0.02 mL/kg, Composition A 0.02 mL/kg SC, Day 1

SMILES: c1cc(CN2CCCNCCNCCCNCC2)ccc1CN1CCCNCCNCCCNCC1 [Plerixafor, 1,1′-[1,4-phenylenebis(methylene)]bis-1,4,8,11-tetraazacyclo-tetradecane]
- half-life ([1]; Plerixafor geometric mean t1/2): 3 to 6 h
- half-life ([1]; sc, Plerixafor t1/2 (GM)): 3.29 h
- IC50 [2]: 51 ± 17 nM
- Peak CD34+ ([3]; high dose plerixafor (0.48 mg/kg)): 32.2 c/μL
- CD34+HSCs mobilized at peak levels ([3]; normal dose of plerixafor (0.24 mg/kg)): 27.8 µL⁻¹
- Plerixafor median time to Cmax ([4]; human): 1 to 3 h
- Plerixafor elimination ([4]; human, 48 h): fully eliminated at 48 hours
- Plerixafor Cmax and AUC versus dose [4]: increased in a dose-proportional manner

SMILES: C=CC[C@@H]1/C=C(\C)C[C@H](C)C[C@H](OC)[C@H]2O[C@@](O)(C(=O)C(=O)N3CCCC[C@H]3C(=O)O[C@H](/C(C)=C/[C@@H]3CC[C@@H](O)[C@H](OC)C3)[C@H](C)[C@@H](O)CC1=O)[C@H](C)C[C@@H]2OC [Tacrolimus]
- Tacrolimus blood trough levels ([5]; day 1): less than 2 ng/ml
- Tacrolimus blood trough levels ([5]; day 5): < 3 ng/mL
- Tacrolimus Cmax and AUC versus dose ([5]; Composition A 0.005, 0.01, 0.02 mL/kg, Day 1 and QAD for 5 days): increased in a dose-proportional manner
- Tacrolimus Ctrough (GM) ([5]; Composition A 0.005 mL/kg SC QAD, Day 5): 0.88 ng/mL
- Tacrolimus Ctrough (GM) ([5]; Composition A 0.005 mL/kg SC, Day 1): 0.57 ng/mL
- Tacrolimus median Ctrough ([5]; Composition A 0.005 mL/kg, Day 1): 0.58 ng/mL
- Tacrolimus Ctrough ([5]; Composition A 0.005 mL/kg, Day 5): 0.90 ng/mL
- Tacrolimus Ctrough (GM) ([5]; Composition A 0.01 mL/kg SC QAD, Day 5): 1.89 ng/mL
- Tacrolimus Ctrough (GM) ([5]; Composition A 0.01 mL/kg SC, Day 1): 1.45 ng/mL
- Tacrolimus median Ctrough ([5]; Composition A 0.01 mL/kg, Day 1): 1.48 ng/mL
- Tacrolimus Ctrough ([5]; Composition A 0.01 mL/kg, Day 5): 1.99 ng/mL
- Tacrolimus Ctrough (GM) ([5]; Composition A 0.02 mL/kg SC QAD, Day 5): 2.94 ng/mL
- Tacrolimus Ctrough (GM) ([5]; Composition A 0.02 mL/kg SC, Day 1): 2.12 ng/mL
- Tacrolimus median Ctrough ([5]; Composition A 0.02 mL/kg, Day 1): 2.24 ng/mL
- Tacrolimus Ctrough ([5]; Composition A 0.02 mL/kg, Day 5): 3.19 ng/mL
- AUC [5, 6]: 70.1 ng·h/mL
- Cmax [5, 6]: 2.09 ng/mL
- Tmax ([5]; sc, 0.005 mL/kg, Composition A 0.005 mL/kg SC QAD, Day 5, read-out: Tacrolimus Tmax (Median)): 10 h
- half-life ([5]; sc, 0.005 mL/kg, Composition A 0.005 mL/kg SC QAD, Day 5, read-out: Tacrolimus t1/2 (GM) (converted)): 24.9 h
- AUC [5, 7]: 46.4 ng·h/mL
- Cmax [5, 7]: 1.47 ng/mL
- Tmax ([5]; sc, 0.005 mL/kg, Composition A 0.005 mL/kg SC, Day 1, read-out: Tacrolimus Tmax (Median)): 7.5 h
- half-life ([5]; sc, 0.005 mL/kg, Composition A 0.005 mL/kg SC, Day 1, read-out: Tacrolimus t1/2 (GM) (converted)): 23.8 h
- AUC [5, 8]: 171 ng·h/mL
- Cmax [5, 8]: 5.37 ng/mL
- Tmax ([5]; sc, 0.01 mL/kg, Composition A 0.01 mL/kg SC QAD, Day 5, read-out: Tacrolimus Tmax (Median)): 5.5 h
- half-life ([5]; sc, 0.01 mL/kg, Composition A 0.01 mL/kg SC QAD, Day 5, read-out: Tacrolimus t1/2 (GM) (converted)): 29.5 h
- AUC [5, 9]: 105 ng·h/mL
- Cmax [5, 9]: 3.15 ng/mL
- Tmax ([5]; sc, 0.01 mL/kg, Composition A 0.01 mL/kg SC, Day 1, read-out: Tacrolimus Tmax (Median)): 12 h
- half-life ([5]; sc, 0.01 mL/kg, Composition A 0.01 mL/kg SC, Day 1, read-out: Tacrolimus t1/2 (GM) (converted)): 37.8 h
- AUC [5, 10]: 237 ng·h/mL
- Cmax [5, 10]: 7.91 ng/mL
- Tmax ([5]; sc, 0.02 mL/kg, Composition A 0.02 mL/kg SC QAD, Day 5, read-out: Tacrolimus Tmax (Median)): 2 h
- half-life ([5]; sc, 0.02 mL/kg, Composition A 0.02 mL/kg SC QAD, Day 5, read-out: Tacrolimus t1/2 (GM) (converted)): 30.6 h
- AUC [5, 11]: 152 ng·h/mL
- Cmax [5, 11]: 4.49 ng/mL
- Tmax ([5]; sc, 0.02 mL/kg, Composition A 0.02 mL/kg SC, Day 1, read-out: Tacrolimus Tmax (Median)): 8.01 h
- half-life ([5]; sc, 0.02 mL/kg, Composition A 0.02 mL/kg SC, Day 1, read-out: Tacrolimus t1/2 (GM) (converted)): 36.4 h
- half-life ([5]; subcutaneous, Composition A 0.005, 0.01, 0.02 mL/kg, Days 1 and 5, read-out: Tacrolimus GM t1/2): 24 to 38 h
- Tmax ([5]; subcutaneous, single dose Day 1 and QAD dosing for 5 days, all doses, read-out: Tacrolimus median Tmax): 2 to 12 h
- Mean tacrolimus trough levels ([5]; intermediate dose of MRG-001 (0.01 mL/kg)): 1.8 ng/mL
- Mean tacrolimus trough levels ([5]; lowest dose of MRG-001 (0.005 ml/kg)): 0.8 ng/mL
- Peak levels of tacrolimus ([5]; middle dose cohort (FIG. 1C)): 2 to 3 ng/mL
